# PMC8226449, “In Vitro Evaluation of the Squaramide-Conjugated Fibroblast Activation Protein Inhibitor-Based Agents AAZTA^5.SA.FAPi and DOTA.SA.FAPi” (Molecules, 2021)
# Where two headings read alike, the source gives them in different places.
# Assays:
# [1] = test system: DPPs (DPP4 and DPP9); test: Counter-screening against DPP4 and DPP9 (Ala-Pro-pNA substrate); format: biochemical, human; conditions: screened at 10 µM and 1 µM, reported as >1 µM if remaining activity more than 50% at 1 µM, n = 2
# Protocol: (§1) Enzymes: Recombinant human FAP and PREP were expressed and purified as published. Recombinant human dipeptidyl 9 (DPP9) was purified as described by De Decker et al.. Human dipeptidyl peptidase 4 was purified from seminal plasma as published.
# (§2) IC50 measurements and counter-screening: IC50-measurements of the probes for FAP and PREP were carried out as published, using, respectively, Z-Gly-Pro-AMC and Suc-Gly-Pro-AMC as the substrate. IC50 experiments were repeated in triplicate, and the results are presented as mean ± standard deviation. Methods and data fitting were performed as published earlier. Screening against DPP4 and DPP9 was performed at final probe concentrations of 10 µM and 1 µM using Ala-Pro-paranitroanilide (pNA) as the substrate at the respective final concentrations of 25 μM (DPP4) and 150 μM (DPP9) at pH 7.4 (0.05 M HEPES-NaOH buffer with 0.1% Tween-20, 0.1 mg/mL BSA, and 150 mM NaCl). Probes were pre-incubated with the respective enzyme for 15 min at 37 °C; afterwards, the substrate was added, and the velocities of pNA release were measured kinetically at 405 nm for at least 10 min at 37 °C. Measurements were executed using the Infinite 200 (Tecan Group Ltd., Mennendorf, Switzerland), and the Magellan software was used to process the data.
# [2] = target: T1, Recombinant human FAP (Homo sapiens, UniProt Q12884); test: FAP inhibition assay (IC50, Z-Gly-Pro-AMC substrate); format: biochemical; conditions: for IC50: mean with standard deviation, n = 3; for Selectivitiy Index (FAP/PREP): ratio of PREP IC50 and FAP IC50
# T1 construct: made in house
# T1 sequence (Q12884 1-760): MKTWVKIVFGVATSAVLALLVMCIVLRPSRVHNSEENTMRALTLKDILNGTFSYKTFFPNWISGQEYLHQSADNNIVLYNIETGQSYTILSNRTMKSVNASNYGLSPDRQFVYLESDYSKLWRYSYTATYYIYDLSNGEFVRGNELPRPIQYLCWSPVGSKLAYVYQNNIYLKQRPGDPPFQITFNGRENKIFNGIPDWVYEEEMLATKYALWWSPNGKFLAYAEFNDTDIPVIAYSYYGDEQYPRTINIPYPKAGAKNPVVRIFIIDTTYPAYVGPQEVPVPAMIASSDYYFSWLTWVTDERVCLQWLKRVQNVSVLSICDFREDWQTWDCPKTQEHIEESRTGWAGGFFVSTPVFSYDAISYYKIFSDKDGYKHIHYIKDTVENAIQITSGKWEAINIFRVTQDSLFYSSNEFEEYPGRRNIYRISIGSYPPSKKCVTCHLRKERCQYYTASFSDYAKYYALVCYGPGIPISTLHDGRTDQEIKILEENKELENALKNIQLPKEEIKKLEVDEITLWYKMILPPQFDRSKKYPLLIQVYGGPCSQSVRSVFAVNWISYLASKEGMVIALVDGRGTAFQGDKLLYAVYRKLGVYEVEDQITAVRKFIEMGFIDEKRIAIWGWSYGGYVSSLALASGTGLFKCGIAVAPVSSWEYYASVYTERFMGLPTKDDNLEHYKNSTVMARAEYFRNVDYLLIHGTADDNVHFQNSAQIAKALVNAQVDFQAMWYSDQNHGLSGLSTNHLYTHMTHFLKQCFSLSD
# Protocol: as §1, §2
# [3] = target: T2, Recombinant human PREP (Homo sapiens, UniProt P48147); test: PREP inhibition assay (IC50, Suc-Gly-Pro-AMC substrate); format: biochemical; conditions: mean with standard deviation, n = 3
# T2 construct: made in house
# T2 sequence (P48147 1-710): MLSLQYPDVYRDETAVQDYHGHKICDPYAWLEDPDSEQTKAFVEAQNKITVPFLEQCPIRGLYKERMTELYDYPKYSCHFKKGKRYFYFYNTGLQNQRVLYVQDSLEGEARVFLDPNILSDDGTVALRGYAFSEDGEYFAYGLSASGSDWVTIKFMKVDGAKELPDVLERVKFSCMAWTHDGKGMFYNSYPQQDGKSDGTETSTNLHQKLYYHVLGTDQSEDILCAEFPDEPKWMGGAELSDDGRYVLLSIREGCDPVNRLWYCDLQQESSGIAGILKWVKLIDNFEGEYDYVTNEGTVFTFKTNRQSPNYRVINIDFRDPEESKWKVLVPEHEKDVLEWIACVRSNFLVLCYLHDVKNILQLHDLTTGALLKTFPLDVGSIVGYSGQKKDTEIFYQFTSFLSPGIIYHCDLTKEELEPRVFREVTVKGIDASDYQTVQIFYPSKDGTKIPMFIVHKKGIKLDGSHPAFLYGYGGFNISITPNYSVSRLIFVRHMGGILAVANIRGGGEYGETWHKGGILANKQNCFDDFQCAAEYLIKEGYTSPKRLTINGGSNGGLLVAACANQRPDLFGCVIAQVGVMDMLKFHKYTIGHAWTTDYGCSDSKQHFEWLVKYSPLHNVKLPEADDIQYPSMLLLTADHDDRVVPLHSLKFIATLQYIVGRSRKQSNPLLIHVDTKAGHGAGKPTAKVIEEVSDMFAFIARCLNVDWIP
# Protocol: as §1, §2
# [4] = Stability of radiolabelled complexes in human serum; format: in vitro ADME; conditions: human serum (HS), 37 °C
# Protocol: (§3) Labeling was carried out with 100–150 MBq gallium-68 in 300 µL of 1 M ammonium acetate (AmAc) buffer pH 5.5 and with 30–40 MBq scandium-44 in 1 mL of 0.25 M AmAc pH 4.0, and aliquots were taken at 1, 3, 5, 10, and 15 min. For lutetium-177, activity of 30–40 MBq in 300 µL of 1 M AmAc pH 5.5 was used, and aliquots were taken at 1, 3, 5, 15, 30, and 60 min. Stability was tested in 500 µL of human serum, phosphate-buffered saline, ethanol, and saline (0.9% isotonic NaCl solution) using ~5 MBq of tracer solution with >95% radiochemical purity. […] HS (human male AB plasma, USA origin) and PBS were purchased from Sigma Aldrich, and 0.9% saline from B. Braun Melsungen AG (Melsungen, Germany).
# [5] = Stability of radiolabelled complexes in PBS, saline (NaCl) and ethanol; format: physicochemical; conditions: 37 °C; for intact conjugate (stability): PBS and NaCl
# Protocol: as §3
# [6] = Lipophilicity (logD) by shake-flask method; format: physicochemical; conditions: pH = 7.4, 1-octanol/PBS
# Protocol: Lipophilicity (logD value) was determined via the “shake-flask” method. For both precursors AAZTA^5.SA.FAPi and DOTA.SA.FAPi logD (pH = 7.4), values were measured for the ^68Ga- and ^44Sc complexes.
# Lipophilicity of [^68Ga]Ga-AAZTA^5.SA.FAPi, [^44Sc]Sc-AAZTA^5.SA.FAPi and [^68Ga]Ga-DOTA.SA.FAPi was determined using the “shake-flask” methodology. After reaction of the precursor with the respective radionuclide, the reaction solution was adjusted to pH 7.4 with NaOH. Aliquots of ~5 MBq for the ^68Ga complexes and of ~3 MBq for the ^44Sc-complexed were taken and adjusted to a total volume of 700 μL with PBS (n= 4). 700 μL 1-octanol was added, and the solution was shaken for 2 min (1500 rpm). Afterwards, each tube was centrifuged for 2 min. 400 μL of the octanol- and PBS phases were pipetted in new tubes, and aliquots of each phase (3 µL of the PBS phase and 6 μL of the octanol phase) were measured via radio-TLC. The PBS phases were adjusted to 700 µL, and 700 μL octanol was added to each tube. The procedure was repeated twice. LogD values were calculated as the logarithm of the octanol/PBS ratio.
# [7] = target: T1, Recombinant human FAP; set-up: method as in Moon et al. [24]; conditions: mean with standard deviation; ref Moon et al. [24]; cited from earlier work
# [8] = target: T2, Recombinant human PREP; conditions: mean with standard deviation; ref Moon et al. [24]; cited from earlier work
smiles,measurement,setting,value
"N#C[C@@H]1CC(F)(F)CN1C(=O)CNC(=O)c1ccnc2ccccc12 [UAMC1110-FAP inhibitor, reference compound]",IC50,[1],> 10 µM
N#C[C@@H]1CC(F)(F)CN1C(=O)CNC(=O)c1ccnc2ccc(OCCCCNc3c(NCCNC(=O)CCCCC4(N(CC(=O)[O-])CC(=O)[O-])CN(CC(=O)[O-])CCN(CC(=O)[O-])C4)c(=O)c3=O)cc12.[Sc+3] [[^natSc]Sc-AAZTA^5.SA.FAPi],IC50,[2],0.00057 ± 4e-05 µM
same,Selectivitiy Index (FAP/PREP),[2],6316
same,IC50,[3],3.6 ± 0.8 µM
same,IC50,[1],> 1 µM
N#C[C@@H]1CC(F)(F)CN1C(=O)CNC(=O)c1ccnc2ccc(OCCCCNc3c(NCCNC(=O)CCCCC4(N(CC(=O)[O-])CC(=O)[O-])CN(CC(=O)[O-])CCN(CC(=O)[O-])C4)c(=O)c3=O)cc12.[177Lu+3] [[^177Lu]Lu-AAZTA^5.SA.FAPi],intact conjugate (stability),[4]; 1 h,> 99%
same,intact conjugate (stability),[4]; 3 h,> 98%
same,intact conjugate (stability),[4]; 1 d,> 83%
same,intact conjugate (stability),[4]; 2 d,> 64%
same,intact conjugate (stability),[4]; 3 d,> 55%
same,intact conjugate (stability),[5]; 2 d,> 99%
same,intact conjugate (stability),[5]; 3 d,> 98%
same,intact conjugate (stability),[5]; 10 days,> 95%
N#C[C@@H]1CC(F)(F)CN1C(=O)CNC(=O)c1ccnc2ccc(OCCCCNc3c(NCCNC(=O)CCCCC4(N(CC(=O)O)CC(=O)O)CN(CC(=O)O)CCN(CC(=O)O)C4)c(=O)c3=O)cc12 [AAZTA^5.SA.FAPi],IC50,[2],0.00056 ± 2e-05 µM
same,Selectivitiy Index (FAP/PREP),[2],4286
same,IC50,[3],2.4 ± 0.4 µM
same,IC50,[1],> 1 µM
N#C[C@@H]1CC(F)(F)CN1C(=O)CNC(=O)c1ccnc2ccc(OCCCCNc3c(NCCNC(=O)CN4CCN(CC(=O)[O-])CCN(CC(=O)[O-])CCN(CC(=O)[O-])CC4)c(=O)c3=O)cc12.[177Lu+3] [[^177Lu]Lu-DOTA.SA.FAPi],intact conjugate (stability),[4]; 10 days,> 99%
same,intact conjugate (stability),[5]; 3 d,> 98%
same,intact conjugate (stability),[5]; 10 days,> 93%
N#C[C@@H]1CC(F)(F)CN1C(=O)CNC(=O)c1ccnc2ccc(OCCCCNc3c(NCCNC(=O)CCCCC4(N(CC(=O)[O-])CC(=O)[O-])CN(CC(=O)[O-])CCN(CC(=O)[O-])C4)c(=O)c3=O)cc12.[68Ga+3] [[^68Ga]Ga-AAZTA^5.SA.FAPi],intact complexes (stability),[4]; over 2 h,> 99.9%
same,intact complexes (stability),"[5]; ethanol (EtOH) and saline (NaCl), over 2 h",> 99.9%
same,LogD7.4,[6],−2.53 ± 0.13
N#C[C@@H]1CC(F)(F)CN1C(=O)CNC(=O)c1ccnc2ccc(OCCCCNc3c(NCCNC(=O)CN4CCN(CC(=O)[O-])CCN(CC(=O)[O-])CCN(CC(=O)[O-])CC4)c(=O)c3=O)cc12.[Lu+3] [[^natLu]Lu DOTA.SA.FAPi],Selectivitiy Index (FAP/PREP),[2],3125
same,IC50,[1],> 1 µM
same,IC50,[7],0.0008 ± 0.0002 µM
same,IC50,[8],2.5 ± 0.4 µM
N#C[C@@H]1CC(F)(F)CN1C(=O)CNC(=O)c1ccnc2ccc(OCCCCNc3c(NCCNC(=O)CCCCC4(N(CC(=O)[O-])CC(=O)[O-])CN(CC(=O)[O-])CCN(CC(=O)[O-])C4)c(=O)c3=O)cc12.[Lu+3] [[^natLu]Lu-AAZTA^5.SA.FAPi],IC50,[2],0.00055 ± 4e-05 µM
same,Selectivitiy Index (FAP/PREP),[2],5818
same,IC50,[3],3.2 ± 0.6 µM
same,IC50,[1],> 1 µM
N#C[C@@H]1CC(F)(F)CN1C(=O)CNC(=O)c1ccnc2ccc(OCCCCNc3c(NCCNC(=O)CCCCC4(N(CC(=O)[O-])CC(=O)[O-])CN(CC(=O)[O-])CCN(CC(=O)[O-])C4)c(=O)c3=O)cc12.[44Sc+3] [[^44Sc]Sc-AAZTA^5.SA.FAPi],intact conjugate (stability),[4]; 1 h,> 99%
same,intact conjugate (stability),[4]; 8 h,> 97%
same,intact conjugate (stability),[5]; 1 h,> 99%
same,intact conjugate (stability),[5]; 8 h,> 99%
same,LogD7.4,[6],−2.50 ± 0.11
"CN(CC(=O)O)C1(CCCCC(=O)NCCNc2c(NCCCCOc3ccc4nccc(C(=O)NCC(=O)N5CC(F)(F)C[C@H]5C#N)c4c3)c(=O)c2=O)CN(CC(=O)O)CCN(CC(=O)O)C1 [DATA^5m.SA.FAPi, reference compound]",Selectivitiy Index (FAP/PREP),[2],2113
same,IC50,[7],0.0008 ± 0.0002 µM
same,IC50,[8],1.7 ± 0.1 µM
N#C[C@@H]1CC(F)(F)CN1C(=O)CNC(=O)c1ccnc2ccc(OCCCCNc3c(NCCNC(=O)CN4CCN(CC(=O)[O-])CCN(CC(=O)[O-])CCN(CC(=O)[O-])CC4)c(=O)c3=O)cc12.[44Sc+3] [[^44Sc]Sc-DOTA.SA.FAPi],intact conjugate (stability),[4]; 8 h,> 97%
same,intact conjugate (stability),[5]; 8 h,> 97%
N#C[C@@H]1CC(F)(F)CN1C(=O)CNC(=O)c1ccnc2ccc(OCCCCNc3c(NCCNC(=O)CN4CCN(CC(=O)[O-])CCN(CC(=O)[O-])CCN(CC(=O)[O-])CC4)c(=O)c3=O)cc12.[Ga+3] [[^natGa]Ga-DOTA.SA.FAPi],Selectivitiy Index (FAP/PREP),[2],6214
same,IC50,[1],> 1 µM
same,IC50,[7],0.0014 ± 0.0002 µM
same,IC50,[8],8.7 ± 0.9 µM
